The values that follow come from patent US12679866B2, “Peptide, and cell fusion agent and pharmaceutical composition for cancer therapy containing said peptide” (priority 2019, dated 2026).

The subject of test [1] is RFL cells (rat lung fetal cells). Nature of the test: Cell fusion activity in RFL cells. The format is cell-based. Particulars: peptide 1 μg/mL, cultured 24-36 hours, nuclear staining. How it is done:
(§1) In this Example, the peptide 1 obtained in Example 1 was added to RFL cells (rat lung fetal cells) or LLC cells (Lewis lung carcinoma-derived cells), and the cell fusion activity of the peptide was examined.
(§2) RFL cells or LLC cells (2×10^6 cells) were suspended in 6 mL of RPMI-1640 medium (Wako, 189-02025) supplemented with 5% FBS (Biosera, Cat No. 015BS493) and 8×10^4 cells/0.25 mL were dispensed to each well of 24 well plate (Iwaki, 2820-024)), and cultured. The medium was removed, and a fresh medium (20 μL) and peptide 1 (1 μg/mL) were dispensed, and the cells were further cultured for 24-36 hours. After the culture was completed, the cells were fixed with methanol (Wako), and nuclear-stained with Gimza staining solution (Muto Kagaku 15003) for microscopic examination.

Test [2] concerns LLC cells (Lewis lung carcinoma-derived cells). As to the kind of experiment: Cell fusion activity in LLC cells. The format is cell-based. Particulars: LLC (printed LCC) cells, peptide 1 μg/mL, cultured 24-36 hours, nuclear staining. As to the method: as §1, §2
Test [3] has as its system A549 cells (human alveolar epithelial adenocarcinoma cells). Nature of the test: Anticancer effect on A549 cells transplanted into nude mice. Particulars: 25 mg/kg intravenous. The class given is in vivo. How it is done: In this example, the anticancer effect of peptide 6 on A549 cells (human alveolar epithelial adenocarcinoma cells) was examined in vivo.
CAnN.Cg-Foxn1nu/CrlCrlj nude mice were divided into groups of 6 animals each. A549 cells suspended in PBS at a concentration of 4×10^6 cells/mL were transplanted subcutaneously to the right ventral part thereof. The peptide 6 was administered intravenously from the tail vein at a dose of 25 mg/kg (peptide 6 group) on 14, 17, 21, 24, 28, 31, 35, and 38 days later after tumor transplantation. Control group was administered PBS only.
Tumor volume and body weight were measured every 3 or 4 days, and the tumor was resected on 38 days after tumor transplantation (on […] after the start of peptide administration). The tumor volume was calculated from the formula “estimated tumor volume=(minor axis)^2×(major axis)÷2” by measuring the minor axis and major axis with a caliper. […] 5 mice were evaluated.

The subject of test [4] is RM-4 cells. Nature of the test: Cell fusion activity in RM-4 cells. The class given is cell-based, rat. Particulars: peptide 1 μg/mL, cultured 24-36 hours, nuclear staining. How it is done:
as §2
In this Example, the cell fusion activity of the peptide 6 was examined. The procedure of Example 2 was repeated, except that the peptide 6 was used instead of the peptide 1, and the RM-4 cells only used instead of the LCC cells. In connection with this, RM-4 cells are cancer cells in which RFL cells were infected with Moloney murine leukemia virus and selected.

Test [5] concerns RFL cells (rat lung fetal cells). As to the kind of experiment: Cell fusion activity in RFL cells. The class given is cell-based. Particulars: peptide 9 vs peptide 1, peptide 1 vs peptide 10.
Test [6] deals with RM-4 cells. Nature of the test: Apoptosis induction in RM-4 cells (Caspase-3/7 and Annexin V, IncuCyte S3). Particulars: 0.06 μg/mL peptide. The class given is cell-based, rat. How it is done: In this Example, the apoptosis ability of peptide 1 was examined using the RM-4 cells. An activity of Caspase-3/7 and an activity of AnnexinV (red fluorescence) which are indications of apoptosis, was measured using IncuCyte S3 live cell analysis system (Essen BioScience).
The activity of Caspase-3/7 activity is measured using an inert non-fluorescent (DEVD) substrate that can penetrate the cell membrane. An activated Caspase-3/7 cleaves the substrate, and thereby a DNA-bound green fluorescent label is released. The activity of Caspase-3/7 is measured by the intensity of green fluorescence.
The activity of Annexin V is measured using a photostable CF dye. CF dye emits a red fluorescent signal when bound to phosphatidylserine (PS). The activity of Annexin V is measured by the red fluorescent signal.
RM-4 cells were seeded on 96-well plates and 0.06 μg/mL of peptide 1 was added thereto. Caspase-3/7 Green Reagent (Unit size: 20 ul, 5 mM/vial) was diluted 500-fold with Ham's F-12K and added thereto. Then, Annexin V Red Reagent (Unit size: 100 tests/vial) was diluted 100-fold with Ham's F-12K and added thereto. They were measured using the IncuCyte S3 live cell analysis system, by continuously scanning every hour for 3 days with an objective lens of magnification of 10 times and 4 fields of view. As a control, RM-4 cells which were not treated with peptide 1, were used.

No end group written: not given here.

On to “CH3-Pro-Ile-Val-Ser-Gln-Thr-Thr-Ala-Ile-Ala (Me-PIVSQTTAIA) [peptide 7]”, for which the “cell fusion activity (fusion cells with multiple nuclei, microscopy)” value in test [1] is “cells are fused and fusion cells with multiple nuclei were found”.
For “CH3-Pro-Ile-Val-Ser-Gln-Thr-Thr-Ala-Leu-Ala (Me-PIVSQTTALA) [peptide 8]”, the “cell fusion activity (fusion cells with multiple nuclei, microscopy)” value is “cells are fused and fusion cells with multiple nuclei were found” in test [1]; “cells are fused and fusion cells with multiple nuclei were found” in test [2].
Take “CH3-Pro-Ile-Val-Ser-Thr-Gln-Thr-Ala-Ile-Ala (Me-PIVSTQTAIA) [peptide 5]”: in test [1], the “cell fusion activity (fusion cells with multiple nuclei, microscopy)” value is “cells are fused and fusion cells with multiple nuclei were found”.
Take “CH3-Pro-Ile-Val-Ser-Thr-Gln-Thr-Ala-Leu-Ala (Me-PIVSTQTALA) [peptide 6]”: the “cell fusion activity (fusion cells with multiple nuclei, microscopy)” value was “cells are fused and fusion cells with multiple nuclei were found” in test [1]; “cells are fused and fusion cells with multiple nuclei were found” in test [4]. For the same substance, the tumor volume entry in test [3] (A549 subcutaneous in nude mice, 8 administrations, 28 days) was “tumor volumes were reduced”. The “histology of HE-stained excised tumor” value in test [3] (A549 tumor resected 38 days after transplantation) is given as “the inside of the tumor was necrotic”.
For “CH3-Pro-Leu-Val-Ser-Gln-Thr-Thr-Ala-Ile-Ala (Me-PLVSQTTAIA) [peptide 3]”, the “cell fusion activity (fusion cells with multiple nuclei, microscopy)” value in test [1] was “cells are fused and fusion cells with multiple nuclei were found”.
Still for that read-out and setting: as for “CH3-Pro-Leu-Val-Ser-Gln-Thr-Thr-Ala-Leu-Ala (Me-PLVSQTTALA) [peptide 4]”, the entry is “cells are fused and fusion cells with multiple nuclei were found”.
“CH3-Pro-Leu-Val-Ser-Thr-Gln-Thr-Ala-Ile-Ala (Me-PLVSTQTAIA) [peptide 1]”: the “cell fusion activity compared with another peptide” value in test [5] is reported as “seemed to be stronger”. In addition, the “apoptosis induction (fluorescence micrographs)” value in test [6] (after 18 and 78 hours) is “induced apoptosis in RM-4 cells”. Also, in test [6] (scanned every hour for 3 days), the “activity of Annexin V (red fluorescence)” value was “increased sharply between 10 and 20 hours, and then gradually increased”; the “activity of Caspase-3/7 (green fluorescence)” value is “increased sharply between 10 and 20 hours, and then gradually increased”. Also, the “cell fusion activity (fusion cells with multiple nuclei, microscopy)” value in test [1] is “cells are fused and fusion cells with multiple nuclei were found”. In addition, the “cell fusion activity (fusion cells with multiple nuclei, microscopy)” value in test [2] was “cells are fused and fusion cells with multiple nuclei were found”.
For “CH3-Pro-Leu-Val-Ser-Thr-Gln-Thr-Ala-Ile-Ala-Thr-Ala (Me-PLVSTQTAIATA) [peptide 9]”, the “cell fusion activity compared with another peptide” value in test [5] is given as “superior to peptide 1”. Also, in test [1], the “cell fusion activity (fusion cells with multiple nuclei, microscopy)” value is “cells are fused and fusion cells with multiple nuclei were found”.
Consider “CH3-Pro-Leu-Val-Ser-Thr-Gln-Thr-Ala-Leu-Ala (Me-PLVSTQTALA) [peptide 2]”, for which the “cell fusion activity (fusion cells with multiple nuclei, microscopy)” value in test [1] is “cells are fused and fusion cells with multiple nuclei were found”.
Same read-out and setting: the same measure for PLVSTQTAIA [peptide 10]: “cells are fused and fusion cells with multiple nuclei were found”.
